Data reported in patent US4515722A, “Phosphatidyl inositol analogs useful as anti-inflammatory/analgesic agents” (Merck & Co., Inc., priority 1982, dated 1985).

Legend:
[1] = test system: Phosphatidyl inositol-specific phospholipase C; assay: Phosphatidyl inositol-specific phospholipase C assay with sonicated human platelets; format: biochemical
Procedure: A. Protocol--Phosphatidyl inositol-specific phospholipase C assays. The assays were performed as follows: A mixture of PI (Sigma) and (^3 H-inositol)-PI in CHCl3 are blown to dryness under N2 and sonicated into a buffer containing DOC and CaCl2 so that the final concentrations in each 200 λ assay are:
0.5 mg/ml DOC containing an appropriate amount of an active compound
in 50 mM Hepes, 100 mM NaCl, 0.5 mg/ml BSA pH 7.
An aliquot of sonicated human platelets, 5×10^9 /ml, is added; the reaction is stopped after 10 minutes with a chloroform/methanol/H2 O solution and the upper water phase is counted to detect water-soluble inositol counts. The pH was checked during each assay using pH paper to verify that none of the compounds affected this parameter.

phospholipase C = details: background statement; cited from earlier work
[2] = Table II, Concentration 0.20 mM

Structure (SMILES): CCCCCCCCCC(=O)OC(CCP(=O)(O)OC1C(O)C(O)C(O)C(O)C1O)COC(=O)CCc1ccc(Oc2ccccc2)cc1 (stereo not shown) [.0.O.0.CH2 CH2 CO]
- % Inhibition ([1]; Table I, Conc. 0.1 mM): 47%
- % Inhibition ([1]; Table I, Conc. 0.5 mM): 66%
- % Inhibition ([1]; Table I, Conc. 1.0 mM): 76%

Structure (SMILES): CCCCCCCCCCCCCCCCCCP(=O)(O)OC1C(O)C(O)C(O)C(O)C1O (stereo not shown) [5-O--(octadecylphosphonyl)-myo-inositol]
- % Inhibition ([1]; Table II, Concentration 0.050 mM): 27%
- % Inhibition [1, 2]: 60%
- % Inhibition ([1]; Table II, Concentration 1.00 mM): 81%

Structure (SMILES): CCCCCCCCCCCCCCCC(=O)OCC(CCP(=O)(O)OC1C(O)C(O)C(O)C(O)C1O)OC(=O)CCCCCCCCCCCCCCC (stereo not shown) [n-C15 H31 CO, 3,4-Dipalmitoyloxybutyl-1-phosphonyl-myo-inositol]
- % Inhibition ([1]; Table I, Conc. 0.05 mM): 37%
- % Inhibition ([1]; Table I, Conc. 0.5 mM): 82%
- % Inhibition ([1]; Table I, Conc. 1.0 mM): 84%

Structure (SMILES): CCCCCCCCCCCCCCCCCCP(=O)(O)O[C@H]1[C@H](O)[C@@H](O)[C@H](O)[C@@H](O)[C@]1(O)CO (relative stereo) [DL-2-C--hydroxymethyl-1-O--octadecanephosphonyl-myo-inositol]
- % Inhibition ([1]; Table II, Concentration 0.115 mM): 51%
- % Inhibition ([1]; Table II, Concentration 1.15 mM): 89%

Structure (SMILES): CCCCCCCCCCCCP(=O)(O)O[C@@H]1[C@H](O)[C@H](O)[C@@H](O)[C@H](O)[C@H]1O (relative stereo) [1-O--(dodecylphosphonyl)-myo-inositol]
- % Inhibition [1, 2]: 51%
- % Inhibition ([1]; Table II, Concentration 2.0 mM): 82%

Structure (SMILES): CCCCCCCCCC(=O)OCC(CCP(=O)(O)OC1C(O)C(O)C(O)C(O)C1O)OC(=O)CCCCCCCCC (stereo not shown) [n-C9 H19 CO, 3,4-Didecanoyloxybutyl-1-phosphonyl-myo-inositol]
- % Inhibition ([1]; Table I, Conc. 1.0 mM): 68%

Structure (SMILES): CCCCCCCC(=O)OCC(CCP(=O)(O)OC1C(O)C(O)C(O)C(O)C1O)OC(=O)CCCCCCC (stereo not shown) [n-C7 H15 CO, 3,4-Dioctanoyloxybutyl-1-phosphonyl-myo-inositol]
- % Inhibition ([1]; Table I, Conc. 1.0 mM): 64%

Structure (SMILES): CCCCCCCCCCCCCCCCCCP(=O)(O)O[C@H]1[C@H](O)[C@@H](O)[C@H](OP(=O)(O)CCCCCCCCCCCCCCCCCC)[C@@H](O)[C@H]1O (relative stereo) [1,4-di(octadecylphosphonyl)-myo-inositol]
- % Inhibition ([1]; Table II, Concentration 0.033 mM): 18%
- % Inhibition ([1]; Table II, Concentration 0.33 mM): 37%

Structure (SMILES): CCCCCCCCCCCCP(=O)(O)O[C@H]1[C@H](O)[C@@H](O)[C@H](OP(=O)(O)CCCCCCCCCCCC)[C@@H](O)[C@H]1O (relative stereo) [Example 20, 1,4-di-O-(dodecylphosphonyl)myo-inositol]
- % Inhibition ([1]; Table II, Concentration 0.043 mM): 20%
- % Inhibition ([1]; Table II, Concentration 0.432 mM): 64%

Structure (SMILES): CCCCCCCCCC(=O)OC(CCP(=O)(O)OC1C(O)C(O)C(O)C(O)C1O)COC(=O)Cc1ccc(-c2ccccc2)cc1 (stereo not shown) [.0.-.0.CH2 CO, 3-Decanoyloxy-4-(p-diphenylacetyloxy)-butyl-1-phosphonyl-myo-inositol]
- % Inhibition ([1]; Table I, Conc. 0.5 mM): 61%
- % Inhibition ([1]; Table I, Conc. 1.0 mM): 75%

Structure (SMILES): CCCCCCCCCCCCCCCCCCP(=O)(O)O[C@@H]1[C@H](O)[C@H](O)[C@@H](O)[C@H](O)[C@H]1O (relative stereo) [1-O--(octadecylphosphonyl)-myo-inositol]
- % Inhibition ([1]; Table II, Concentration 0.105 mM): 12%
- % Inhibition ([1]; Table II, Concentration 1.05 mM): 66%

Structure (SMILES): c1ccc2c(c1)Nc1ccccc1S2 [phenothiazine]
- inhibition of phospholipase C (phospholipase C): inhibited

Structure (SMILES): CCCCCCCCCCCCCCCCCCP(=O)(O)O[C@H]1[C@H](O)[C@@H](O)[C@H](O)[C@@H](O)[C@H]1OC (relative stereo) [DL-2-O--methyl-1-O--(octadecylphosphonyl)-myo-inositol]
- % Inhibition ([1]; Table II, Concentration 0.122 mM): 53%
- % Inhibition ([1]; Table II, Concentration 1.22 mM): 83%

Structure (SMILES): CCCCCCCC(=O)OCC(CCP(=O)(OC)OC1C(O)C(O)C(O)C(O)C1O)OC(=O)CCCCCCC (stereo not shown) [(M) (M) CH3]
- % Inhibition ([1]; Table I, Conc. 0.5 mM): 50%
- % Inhibition ([1]; Table I, Conc. 1.0 mM): 72%
